Source: ChEMBL document CHEMBL1156829 (Proc Natl Acad Sci U S A, 2008)

Assays:
[1] = system: Plasmodium falciparum; experiment: NOVARTIS: Inhibition of Plasmodium falciparum W2 (drug-resistant) proliferation in erythrocyte-based infection assay; assay type: functional, organism-based; conditions: Plasmodium falciparum, W2; read-out: EC50
[2] = system: Plasmodium falciparum; experiment: NOVARTIS: Inhibition of Plasmodium falciparum 3D7 (drug-susceptible) proliferation in erythrocyte-based infection assay; assay type: functional, organism-based; conditions: Plasmodium falciparum, 3D7
[3] = NOVARTIS: Cytotoxicity against human hepatocellular carcinoma cell line (Huh7); assay type: toxicity, cell-based, Huh-7; conditions: Huh7 cells (hepatocellular carcinoma cell line)

Row | Structure (SMILES) | EC50 [1] | EC50 [2] | CC50 [3]
1 | CC(=Cc1sc2ccc3occc3c2[n+]1CCO)C=C1Sc2ccc3ccoc3c2N1CCO.CCC(=Cc1sc2ccc3ccccc3c2[n+]1C)C=C1Sc2ccc3ccccc3c2N1C | 144 nM | > 373 nM | > 10000 nM
2 | COc1ccc2nc(NC(=N)N)nc(C)c2c1 | 867 nM | 712 nM | 57500 nM
3 | COc1cccc(Nc2nc(NCCO)c3ccccc3n2)c1 | 312 nM | 115 nM | 21100 nM
4 | OCCNc1nc(Nc2cccc(O)c2)nc2ccccc12 | 1010 nM | 203 nM | 69400 nM
5 | COc1ccc(C2=C(c3ccc(OC)cc3)C3(c4ccccc4)C(=O)C2(c2ccccc2)C2C(=O)N(c4ccc(C)cc4)C(=O)C23)cc1 (configuration not stated) | 1480 nM | > 12500 nM | > 100000 nM
6 | CC(C)Cc1ccc(C=CC(=O)NC2CC2)cc1 | 1470 nM | 1150 nM | > 100000 nM
7 | CCCCOc1ccc(C(O)C(CN2CCCCC2)c2ccccc2)cc1 (configuration not stated) | 591 nM | 835 nM | 39300 nM
8 | COc1ccc(NC(=O)N(CCCNS(=O)(=O)c2ccc([N+](=O)[O-])cc2)c2ccc(Oc3ccccc3)cc2)cc1 | 114 nM | 733 nM | > 7770 nM
9 | CC(C)OC(=O)c1cccnc1SCC(=O)Nc1ccc(C(F)(F)F)cc1Cl | 1500 nM | 5540 nM | > 100000 nM
10 | Cc1c(NC(=O)C2c3ccccc3C(=O)N3CCc4ccccc4C23)cccc1[N+](=O)[O-] (configuration not stated) | 1520 nM | 4070 nM | > 100000 nM
11 | CCN(CC)CCNc1nc(/C=C/c2ccc(Cl)cc2)nc2cc3ccccc3cc12 | 90.1 nM | 124 nM | 5930 nM
12 | O=C(NCc1ccccc1C(F)(F)F)C1CC(O)CN1C(=O)Nc1ccccc1 (configuration not stated) | 152 nM | > 1250 nM | > 10000 nM
13 | CCCCOc1ccc(C(=O)N(C)CCCNc2ccnc3cc(Cl)ccc23)cc1 | 69 nM | 605 nM | 4790 nM
14 | O=C(NN=Cc1cccc(Cl)c1)C1COc2ccccc2O1 (configuration not stated) | > 144 nM | > 935 nM | > 10000 nM
15 | COc1ccc(C(OCC(=O)N2CCSCC2)c2ccncc2Cl)cc1 (configuration not stated) | 1450 nM | > 12400 nM | > 100000 nM
16 | C(=Nc1cnc2ccccc2c1)c1c2n(c3ccccc13)CCCN2 | 1510 nM | 663 nM | > 100000 nM
17 | Cc1nc(-c2nc3c(s2)CN(C(=O)c2ccncc2)CC3)cs1 | 144 nM | 163 nM | > 10000 nM
18 | C=CCCC(=O)N1CCC(C(=O)Nc2ccc(-c3nc4ccccc4o3)cc2)CC1 | 1520 nM | 5420 nM | > 100000 nM
19 | CC(NC(=O)c1cnn2c(C(F)(F)F)cc(-c3ccc(Br)cc3)nc12)c1ccccc1 (configuration not stated) | 1520 nM | > 10800 nM | > 100000 nM
20 | O=C(Nc1ccc(Oc2cccnc2)cc1)C1CCN(Cc2cc3ccccc3o2)CC1 | 1510 nM | 367 nM | > 100000 nM
21 | CCN1CCN(c2cc(C)c(C#N)c3nc4ccccc4n23)CC1 | 1510 nM | 798 nM | > 100000 nM
22 | CC(C)CCNC(=O)CN1C(=O)c2cccnc2Oc2ccccc21 | 1500 nM | 4050 nM | > 100000 nM
23 | O=C(Nc1ccccc1C(F)(F)F)N1CCC(N2CCCCC2)CC1 | 1500 nM | > 9510 nM | > 100000 nM
24 | CN(CCCNc1ccnc2cc(Cl)ccc12)C(=O)c1ccc(Cl)c(Cl)c1 | 122 nM | 36.6 nM | > 8360 nM
25 | N#Cc1c(N)n(CCc2ccc(Cl)cc2Cl)c2nc3ccccc3nc12 | 485 nM | 828 nM | 33400 nM
26 | Cc1ccc(NC(=O)c2cc(C(=O)c3cc(Cl)ccc3O)cn(-c3ccc(C)cc3C)c2=O)c(C)c1 | 885 nM | 934 nM | 59000 nM
27 | COc1ccccc1N1CCN(c2ccc(NC(=O)c3ccc(F)cc3)cc2C(=O)N2CCCC2)CC1 | 149 nM | > 1250 nM | > 10000 nM

Row | Structure (SMILES) | EC50 [1] | EC50 [2] | CC50 [3]
28 | COC(=O)[C@@H]1C[C@@H](NC(=O)c2ccc(OC)cc2OC)CN1Cc1cccc2ccccc12 | 1490 nM | 4690 nM | > 100000 nM
29 | CCOc1ccc(NC(=O)C(C)CSc2nc3ccc(NC(=O)CC)cc3s2)cc1 (configuration not stated) | 1480 nM | > 12500 nM | > 100000 nM
30 | Cc1cc(C)n(-c2ccc(NC(=O)C3CCN(Cc4ccncc4)CC3)cc2)n1 | 1480 nM | 1280 nM | > 100000 nM
31 | CC1CCCN(c2ccc(C(=O)NC3CC3)cc2[N+](=O)[O-])C1 (configuration not stated) | 1460 nM | 559 nM | > 100000 nM
32 | COc1cc(C2c3[nH]c4ccccc4c3C[C@@H]3C(=O)N(CCc4ccccc4)CC(=O)N23)cc(OC)c1OC (some centres not stated) | 161 nM | 497 nM | > 10800 nM
33 | CC(=O)N1c2ccc(C)cc2C(C)(c2ccccc2)CC1(C)C (configuration not stated) | 674 nM | 776 nM | 45400 nM
34 | c1cc2c(cc1Nc1c3c(nc4nncn14)CCC3)OCCO2 | 1480 nM | 2950 nM | > 100000 nM
35 | O=C(Nc1ccc(NC(=O)c2ccc(C3=NCCCN3)cc2)cc1)Nc1ccc(C2=NCCCN2)cc1 | 148 nM | 115 nM | > 10000 nM
36 | c1ccc(C[n+]2ccc(-c3nc4ccccc4s3)cc2)cc1 | 1480 nM | 1850 nM | > 100000 nM
37 | CCN(CC)c1ccc(N=Cc2ccccc2[N+](=O)[O-])cc1 | 410 nM | 571 nM | 27700 nM
38 | CCOc1ccc2[nH]c(=O)c(CN(CCN(CC)CC)C(=S)NCCCN(CC)CC)cc2c1 | 1480 nM | 5560 nM | > 100000 nM
39 | CC1CCN(Cc2c(O)ccc3cc(-c4nc5ccccc5s4)c(=O)oc23)CC1 | 1470 nM | > 12500 nM | > 100000 nM
40 | Cc1cccc(-n2ccnc2SCC(=O)Nc2cc(C(F)(F)F)ccc2Cl)c1 | 1470 nM | 541 nM | > 100000 nM
41 | CCC(C(=O)NCCCCNc1ccnc2cc(Cl)ccc12)c1ccccc1 (configuration not stated) | 168 nM | 288 nM | 11500 nM
42 | Cc1ccn2c(NC(C)(C)CC(C)(C)C)c(-c3ccccc3OC(=O)c3ccc4ccccc4c3)nc2c1 | 152 nM | 729 nM | > 10000 nM
43 | CCCC(=O)N(C/C=C/c1ccccc1OC)CCN1CCN(C(=O)Nc2cccc(C)c2)CC1 | 148 nM | > 1250 nM | > 10000 nM
44 | CCOc1ccc2nc(C)cc(Nc3cccc(O)c3)c2c1 | 289 nM | 201 nM | 19800 nM
45 | Cc1ccc(C(C(=O)NC2CCCCC2)N(C(=O)c2ccc(-c3ccccc3)[nH]2)c2ccc(C3CCCCC3)cc2)o1 (configuration not stated) | 1470 nM | 1160 nM | > 100000 nM
46 | COc1ccc(CNC2CCN(c3cccc(NC(=O)C4CC4)c3)CC2)cc1 | 948 nM | 2950 nM | 65100 nM
47 | CC(=O)C1C(=O)c2c(cccc2[N+](=O)[O-])C1=Nc1ccccc1C (configuration not stated) | 777 nM | 643 nM | 51700 nM
48 | c1ccc(C2=Nc3ccccc3C(c3ccccc3)(c3ccccc3)N2)cc1 | 590 nM | 754 nM | 39400 nM
49 | O=C(NCCCCNc1ccnc2cc(Cl)ccc12)C1CCCCC1 | 198 nM | 311 nM | > 13300 nM
50 | Cc1sc2ncnc(Nc3ccncc3)c2c1C | > 1450 nM | > 12500 nM | > 100000 nM
51 | COc1ccc(C)cc1-n1c(-c2ccc(Cl)cc2)cc2c1CC(C)(C)CC2=O | > 145 nM | 3.34 nM | > 10000 nM
52 | Cc1ccn2c(NC(C)(C)CC(C)(C)C)c(-c3ccccc3OS(=O)(=O)CC34CCC(CC3=O)C4(C)C)nc2c1 (configuration not stated) | 147 nM | 1360 nM | > 10000 nM
53 | Cc1cn2c3ccccc3n(CCN3CCCC3)c2n1 | 889 nM | 995 nM | 60500 nM
54 | CCOC(=O)c1c(C)oc2c1C(=O)c1ccccc1C2=O | 710 nM | 1960 nM | 49300 nM
